{
  "source": "patent US12233041B2",
  "about": "“Disulfonate stilbenes for use in the treatment of proliferative diseases” (UNIVERSITÉ DE NANTES, priority 2018, dated 2025)",
  "key": {"[1]": {"tested_on": "DU145 prostate cancer cell line", "assay": "Cytotoxicity, MTT assay", "format": "cell-based", "settings": "DU-145 cells, 50 μM for 3 days", "description": "(§1) Prostate cancer cells DU145 (carcinoma) and fibroblast cells were cultured in […] (RPMI 1640 medium) supplemented with 10% fetal bovine serum (FBS) and 1% penicillin/streptomycin, and were grown at 37° C. with 5% CO2.\n(§2) Tested molecules were dissolved and stored in DMSO at 20 mM concentration.\n(§3) DU145 and fibroblast cells were seeded at 5×10^3 cells/well in 100 μl of medium in standard 96-well plates. The plates were incubated 24 h at 37° C. at an atmosphere of 5% CO2. Molecule solutions diluted in DMSO were serially diluted by RPMI 1640 medium from 60 μM to 0.02 μM and were added in 100 μl RPMI in quadruplicate.\nAfter 72 h of incubation, 20 μL of 5 mg mL-1 MTT was added to each well according to the manufacturer's instructions. After 2 h of incubation at 37° C., the medium was removed, and 200 μl DMSO was added to each well to dissolve formazan crystals. The absorbance at 540 nm of each well was then monitored using an EnSpire multimode plate reader. Absorbance of each well was expressed as percentage of the control (wells with untreated cells), and the 50% inhibitory concentration (IC50) was determined. […] All data were expressed as the mean values±standard deviation. The IC50 values were calculated by linear regression analysis of the concentration-log response curves using the software GraphPad InStat 3.0. […]"}, "[2]": {"tested_on": "DU-145 cell line", "assay": "Clonogenicity test, sensitizing effect with an antineoplastic drug", "format": "cell-based", "settings": "DU-145, cisplatin alone; read-out: IC50 (clonogenic survival, cisplatin)", "description": "Clonogenicity tests are carried out against several model cell lines derived from cancer including prostate cancer (DU-145). Cells are exposed to an anti-cancer agent targeting DNA (cisplatin or camptothecin). Damaged cells are counted and seeded in the presence or in the absence of B-2 in triplicate culture plates. After about two weeks of incubation at 37° C. the number of clones formed is counted. Each cell capable of repairing its lesions will then form a clone. After counting, the percentage of survival will be calculated relative to the control condition for which it is considered that there is 100% survival.\nThe main interest of RAD51 protein inhibitors is the sensitization of chemo-resistant or radio-resistant cancerous cell lines. Clonogenicity evaluation was carried out on the DU-145 cell line treated with cisplatin treatment in the presence or in the absence of disulfonate stilbene B-2 (RAD51 protein inhibitor).\nDU-145 cell line was treated with camptothecin in the presence or in the absence of disulfonate stilbene B-2 (RAD51 protein inhibitor) and the clonogenic cell survival was determined."}, "[3]": {"tested_on": "RAD51 foci in DU-145 cells", "assay": "Rad51 foci quantification by immunofluorescence", "format": "cell-based", "settings": "DU-145, cisplatin 30 μM for 1 hour, fixed after 18 h", "description": "DU-145 cells were grown on coverslips (Life Technologies) at a density of 5×10^3 cells per well in medium (RPMI) supplemented with 10% fetal bovine serum (Gibco-Invitrogen). Cells were treated with Cisplatin at 30 μM for 1 hour in presence or in absence of RAD51 inhibitor B-2 at 20 μM, and then the medium was replaced with molecule-free medium. After 18 h, cells were washed once in PBS for 5 min and fixed with ethanol absolute for 25 min.\nThe fixed cells were incubated for 1 h in the PBS buffer containing 1:1000 diluted anti-RAD51 antibody at room temperature. After three 5-min washes in PBS, slides were incubated with PBS solution containing the secondary antibody conjugated with AlexaFluor 555 ([…]) for 45 min in dark room. […] The images were recorded with NIS Element software (Version 3.6, Nikon, Tokyo, Japan). The quantification of RAD51 foci was processed with a program derived from Fiji-ImageJ software (NIH, Bethesda, Maryland, USA). […]\nThe treatment with Cisplatin alone induces a high level of RAD51 foci, whereas this level is decreased when the treatment is associated with B-2 20 μM. After the quantification of the number of RAD51 foci per cell, the number of cells containing more than 20 RAD51 foci was determined."}, "[4]": {"molecular_target": "T1, HsRad51 (Homo sapiens, UniProt Q06609)", "T1 sequence (Q06609 1-339)": "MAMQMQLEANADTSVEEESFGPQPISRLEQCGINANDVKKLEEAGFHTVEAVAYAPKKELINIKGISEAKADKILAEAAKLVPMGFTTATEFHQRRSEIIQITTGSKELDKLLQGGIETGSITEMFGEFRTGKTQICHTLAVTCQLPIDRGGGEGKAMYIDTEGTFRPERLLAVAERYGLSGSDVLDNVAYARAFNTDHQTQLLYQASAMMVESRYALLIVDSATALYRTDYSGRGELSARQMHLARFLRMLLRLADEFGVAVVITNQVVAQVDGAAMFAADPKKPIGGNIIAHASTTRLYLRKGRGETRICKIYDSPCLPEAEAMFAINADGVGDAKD", "assay": "RAD51 oligomerization by SDS-PAGE gel after crosslink", "format": "biochemical", "settings": "2.5 μM HsRad51, disuccinimidyl suberate crosslink, SDS-PAGE/Western blot; FIG. 1", "description": "The reaction was performed at room temperature. 2.5 μm HsRad51 was incubated with the indicated concentrations of tested compounds for 10 min in a buffer containing 20 mm sodium phosphate, 50 mm NaCl, 1 mm MgCl 2, and 1 mm ATP. The cross-linking reactions were initiated by the addition of disuccinimidyl suberate (50 μm) and allowed to proceed for 30 min. Reactions were quenched by the addition of Tris-HCl (pH 7.5, final concentration: 50 mm) followed by subsequent incubations for 15 min. The products were then separated by 12% SDS polyacrylamide gel electrophoresis and detected by Western blot with mouse monoclonal anti-Rad51 antibody (NeoMarkers) and anti-mouse Alexa-Fluor 700-conjugated secondary antibody (Molecular Probes, Eugene, OR). The cross-linked dimer was quantified by an Odyssey Infrared Imaging System scanner (Li-Cor Biosciences) (Martinez, S. F. et al., “Targeting human Rad51 by specific DNA aptamers induces inhibition of homologous recombination”, Biochimie, December 2010, Vol. 92, No. 12, pp. 1832-1838).\nThe SDS-PAGE electrophoresis after crosslink maintains and immobilizes the RAD51 protein complexes and thus allows visualization of the degree of oligomerization (polymer formation) of the RAD51 protein. The effect of RAD51 protein inhibitors B-1, B-2, B-3, DIDS and X-4 on this key step of RAD51 protein recombinase activity has thus been evaluated. The results are presented on FIG. 1."}, "[5]": {"molecular_target": "T2, Rad51 (Homo sapiens, UniProt Q06609)", "T2 sequence (Q06609 1-339)": "T1 sequence (Q06609 1-339)", "assay": "DNA invasion by D-loop assay (strand exchange)", "format": "biochemical", "settings": "0.5 μM Rad51, 1 μM 100-ssDNA, 37° C.; read-out: IC50 (RAD51 protein inhibition, D-loop formation)", "description": "Labeled 100-ssDNA** (1 μM) was incubated with 0.5 μM Rad51 in presence or absence of the indicated amounts of the corresponding molecule in 10 μL of standard reaction buffer containing 20 mM Tris-HCl (pH 8), 1 mM ATP, 1 mM DTT, 1 mM CaCl2) at 37° C. for 20 min. The reaction was initiated by adding supercoiled pPB4.3 DNA (200 μM in bp). After incubation of 30 min at 37° C., the reactions were stopped and deproteinized by a stop solution (10 mM Tris-HCl pH 8, 10 mM MgCl2, 1% SDS, and 1 mg/mL proteinase K. The reaction mixtures were further incubated for 15 min at 37° C. After adding 5-fold loading dye (0.05% bromophenol blue, 8% glycerol, 1 mM EDTA), the reaction products were separated by electrophoresis on 1% agarose gel. The electrophoresis was carried out in 0.5×TAE buffer (20 mM Tris, 10 mM acetic acid and 1 mM EDTA) at 100 V for 2 h. The labeled products (100-ssDNA** and D-loop) were visualized and quantified by the detection of the IRD-700 dye with the 700 nm infrared fluorescent detection channel of an Odyssey Infrared Imager (LI-COR) (Normand, A. et al., Biochemical Pharmacology, October 2014, Vol. 91, No. 3, pp. 293-300).\nThe “D-loop” in vitro test allows the quantification of the formation of the strand exchange structure (D-loop) and thus the determination of the inhibitory power of a molecule during the strand exchange step of the recombinase mechanism. IC50 measuring the RAD51 protein inhibition in presence of compounds A-1 to A-5, […] and DIDS are then calculated."}, "[6]": {"tested_on": "fibroblast cells", "assay": "Cytotoxicity, MTT assay", "format": "cell-based", "settings": "50 μM for 3 days, FIG. 7", "description": "as §1, §2, §3\nAfter 72 h of incubation, 20 μL of 5 mg mL-1 MTT was added to each well according to the manufacturer's instructions. After 2 h of incubation at 37° C., the medium was removed, and 200 μl DMSO was added to each well to dissolve formazan crystals. The absorbance at 540 nm of each well was then monitored using an EnSpire multimode plate reader. Absorbance of each well was expressed as percentage of the control (wells with untreated cells), and the 50% inhibitory concentration (IC50) was determined. […] All data were expressed as the mean values±standard deviation. The IC50 values were calculated by linear regression analysis of the concentration-log response curves using the software GraphPad InStat 3.0."}},
  "data": [
    {"smiles": "O=c1c2ccccc2nc(/C=C/c2cccnc2)n1Cc1ccccc1", "note": "[BPQ, (E)-3-benzyl-2-(2-(pyridin-3-yl)vinyl)quinazolin-4(3H)-one]", "values": [
      {"measurement": "mortality of cells", "setting": "[1]", "value": 90, "unit": "%"},
      {"measurement": "cytotoxic effect", "setting": "[1]; FIG. 6", "value": "high cytotoxicity"}
    ]},
    {"smiles": "N.N.[Cl][Pt][Cl]", "note": "[Cisplatin, reference compound]", "values": [
      {"measurement": "IC50", "setting": "[2]", "value": 33, "unit": "µM"},
      {"measurement": "level of RAD51 foci", "setting": "[3]", "value": "high level"}
    ]},
    {"smiles": "O=S(=O)(O)c1cc(N=C=S)ccc1C=Cc1ccc(N=C=S)cc1S(=O)(=O)O", "note": "[DIDS, 4,4′-Diisothiocyano-2,2′-stilbene disulfonic acid, reference compound]", "values": [
      {"measurement": "oligomerization state of RAD51 protein", "setting": "[4]", "value": "reduction"},
      {"measurement": "IC50", "setting": "[5]", "value": 1, "unit": "µM"},
      {"measurement": "cytotoxic effect", "setting": "[6]", "value": "has a cytotoxic effect"}
    ]}
  ]
}
